Experiment: physchem
Details: 20 °C

In the case of `CCN1OCC(NC(=O)c2ccc(C3=NOC(c4cc(Cl)c(F)c(Cl)c4)(C(F)(F)F)C3)cc2C)C1=O` (stereo not shown) [Isocycloseram], the solubility is reported as < 5 µg/mL.
